This is an account of results in patent publication US12673946B2, “Pyrimidin-4(3H)-one derivatives as TRPV4 antagonists” (RaQualia Pharma Inc., priority 2020, dated 2026).

Molecules are shown by their SMILES.

The assay deals with T1, human TRPV4 (Homo sapiens, UniProt Q9HBA0).
T1 construct: host or cells: tetracycline-inducible Flp-In T-REx 293 cells
Briefly: Hypotonicity-induced Ca2+ influx (Fluo-4, FDSS). In kind it is cell-based. The gist of the method:
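Flp-In T-REx 293 cells with tetracycline-induced human TRPV4, loaded with Fluo-4 for 60 min at 25 °C. Compound added 5 min before hypotonic mannitol/CaCl2 solution. Ca2+ signal recorded for 4.5 min on FDSS.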

[1] abbreviates: Flp-In T-REx 293 cells expressing human TRPV4, examples listed under heading 'Human IC50<50 nM'.
Setting [2] is: Flp-In T-REx 293 cells stably expressing human TRPV4, compounds listed by potency bin (<10 nM Tables 96-1/96-2, <3 nM Table 97).

T1 sequence (Q9HBA0 whole entry): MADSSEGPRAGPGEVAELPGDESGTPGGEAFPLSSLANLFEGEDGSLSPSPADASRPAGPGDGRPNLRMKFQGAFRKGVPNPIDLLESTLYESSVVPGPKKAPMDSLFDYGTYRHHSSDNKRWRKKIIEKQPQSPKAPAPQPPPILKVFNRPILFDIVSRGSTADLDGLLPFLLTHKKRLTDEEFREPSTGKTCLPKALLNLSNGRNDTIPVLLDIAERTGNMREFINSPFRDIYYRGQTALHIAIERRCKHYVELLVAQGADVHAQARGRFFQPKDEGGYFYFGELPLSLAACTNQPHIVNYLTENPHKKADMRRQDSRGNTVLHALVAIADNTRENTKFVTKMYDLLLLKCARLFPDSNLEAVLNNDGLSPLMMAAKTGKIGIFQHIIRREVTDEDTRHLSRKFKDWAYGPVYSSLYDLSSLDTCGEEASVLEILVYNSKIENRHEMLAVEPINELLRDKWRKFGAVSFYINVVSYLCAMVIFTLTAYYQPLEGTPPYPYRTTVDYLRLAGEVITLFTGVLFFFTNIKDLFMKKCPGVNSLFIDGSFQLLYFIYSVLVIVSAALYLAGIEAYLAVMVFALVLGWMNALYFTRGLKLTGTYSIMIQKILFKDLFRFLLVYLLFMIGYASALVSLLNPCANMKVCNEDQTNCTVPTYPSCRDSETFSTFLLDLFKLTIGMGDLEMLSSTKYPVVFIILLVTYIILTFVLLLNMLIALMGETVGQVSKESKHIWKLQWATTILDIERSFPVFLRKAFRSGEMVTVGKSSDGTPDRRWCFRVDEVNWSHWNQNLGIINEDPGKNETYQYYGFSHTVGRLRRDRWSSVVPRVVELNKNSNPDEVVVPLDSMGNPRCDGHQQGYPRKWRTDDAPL

Consider `CN(C)C(=O)c1cccc(-c2cccc(C3(c4nc5c(c(=O)[nH]4)CN(C(=O)[C@H](O)c4cccc(C(F)(F)F)c4)CCC5)CC3)c2)c1` [42-31], for which the IC50 was less than 0.05 µM under setting [1] and less than 0.01 µM under setting [2].

As to `CNc1cc(-c2cccc(C3(c4nc5c(c(=O)[nH]4)CN(C(=O)[C@H](O)c4cccc(C(F)(F)F)c4)CCC5)CC3)c2)ccn1` [42-32], the IC50 is less than 0.05 µM under setting [1] and less than 0.01 µM under setting [2].

`O=C([C@H](O)c1cccc(C(F)(F)F)c1)N1CCCc2nc(C3(c4cccc(-c5cncnc5)c4)CC3)[nH]c(=O)c2C1` [42-33] came in with an IC50 under setting [1] of less than 0.05 µM.

Under setting [1], `Cn1ccc(-c2cccc(C3(c4nc5c(c(=O)[nH]4)CN(C(=O)[C@H](O)c4cccc(C(F)(F)F)c4)CCC5)CC3)c2)n1` [42-34] came in with an IC50 of less than 0.05 µM.

In turn, `O=C([C@H](O)c1cccc(C(F)(F)F)c1)N1CCCc2nc(C3(c4cccc(C5=CCC(C(F)(F)F)CC5)c4)CC3)[nH]c(=O)c2C1` (stereo partly shown) [42-35] returned an IC50 under setting [1] of less than 0.05 µM and an IC50 under setting [2] of less than 0.01 µM.

As to `CN(C)Cc1cccc(-c2cccc(C3(c4nc5c(c(=O)[nH]4)CN(C(=O)[C@H](O)c4cccc(C(F)(F)F)c4)CCC5)CC3)c2)c1` [42-36], the IC50 under setting [1] is less than 0.05 µM.

On to `CN1CCN(Cc2ccc(-c3cccc(C4(c5nc6c(c(=O)[nH]5)CN(C(=O)[C@H](O)c5cccc(C(F)(F)F)c5)CCC6)CC4)c3)cc2)CC1` [42-37], for which the IC50 under setting [1] was less than 0.05 µM.

With `Cn1cc(-c2cccc(C3(c4nc5c(c(=O)[nH]4)CN(C(=O)[C@H](O)c4cccc(C(F)(F)F)c4)CCC5)CC3)c2)ccc1=O` [42-38], the IC50 under setting [1] was less than 0.05 µM.

In the case of `O=C([C@H](O)c1cccc(C(F)(F)F)c1)N1CCCc2nc(C3(c4cccc(-c5ccc(OCc6ccccn6)cc5)c4)CC3)[nH]c(=O)c2C1` [42-43], the IC50 was less than 0.05 µM under setting [1] and less than 0.003 µM under setting [2].

For `O=C([C@H](O)c1cccc(C(F)(F)F)c1)N1CCCc2nc(C3(c4cccc(-c5cncc(C(F)(F)F)c5)c4)CC3)[nH]c(=O)c2C1` [42-45], the IC50 was less than 0.05 µM under setting [1] and less than 0.01 µM under setting [2].

On to `O=C([C@H](O)c1cccc(C(F)(F)F)c1)N1CCCc2nc(C3(c4cccc(-c5ccc(C(F)(F)F)nc5)c4)CC3)[nH]c(=O)c2C1` [42-46], for which the IC50 is, setting by setting: under setting [1], less than 0.05 µM; under setting [2], less than 0.003 µM.

Consider `O=C([C@H](O)c1cccc(C(F)(F)F)c1)N1CCCc2nc(C3(c4cccc(-c5ccc6ccccc6c5)c4)CC3)[nH]c(=O)c2C1` [42-47], for which the IC50 reads like this: under setting [1], less than 0.05 µM; under setting [2], less than 0.01 µM.

Turning to `O=C([C@H](O)c1cccc(C(F)(F)F)c1)N1CCCc2nc(C3(c4cccc(-c5ccnc(C(F)(F)F)c5)c4)CC3)[nH]c(=O)c2C1` [42-48], the IC50 is less than 0.05 µM under setting [1] and less than 0.003 µM under setting [2].

In the case of `O=C([C@H](O)c1cccc(C(F)(F)F)c1)N1CCCc2nc(C3(c4cccc(-c5cccc6ccccc56)c4)CC3)[nH]c(=O)c2C1` [42-49], the IC50 under setting [1] is less than 0.05 µM and the IC50 under setting [2] is less than 0.01 µM.

As for `CN1CCc2cc(-c3cccc(C4(c5nc6c(c(=O)[nH]5)CN(C(=O)[C@H](O)c5cccc(C(F)(F)F)c5)CCC6)CC4)c3)ccc21` [42-50], the IC50 by setting is: under setting [1], less than 0.05 µM; under setting [2], less than 0.01 µM.

Consider `O=C([C@H](O)c1cccc(C(F)(F)F)c1)N1CCCc2nc(C3(c4cccc(-c5ccc(N6CCCC6)nc5)c4)CC3)[nH]c(=O)c2C1` [42-51], for which the IC50 runs as follows: under setting [1], less than 0.05 µM; under setting [2], less than 0.01 µM.

Under setting [1], `O=C([C@H](O)c1cccc(C(F)(F)F)c1)N1CCCc2nc(C3(c4cccc(-c5ccc(CN6CCCC6)cc5)c4)CC3)[nH]c(=O)c2C1` [42-52] registered an IC50 of less than 0.05 µM.

Under setting [1], `CN(C)Cc1ccc(-c2cccc(C3(c4nc5c(c(=O)[nH]4)CN(C(=O)[C@H](O)c4cccc(C(F)(F)F)c4)CCC5)CC3)c2)cc1` [42-53] had an IC50 of less than 0.05 µM.

`CNc1ccc(-c2cccc(C3(c4nc5c(c(=O)[nH]4)CN(C(=O)[C@H](O)c4cccc(C(F)(F)F)c4)CCC5)CC3)c2)cn1` [42-54] showed an IC50 under setting [1] of less than 0.05 µM and an IC50 under setting [2] of less than 0.01 µM.
